Reference: ChEMBL document CHEMBL4800723, “Data for DCP probe BI-1942” (2021)

Key:
[1] = molecular target: Beta-3 adrenergic receptor (Homo sapiens) (UniProt P13945); details: Compound concentration 10.0 uM
[2] = molecular target: Alpha-1A adrenergic receptor (Homo sapiens) (UniProt P35348); test: ALPHA1AH_ANTAG Eurofins SafetyScreen44 (BI); details: filed as antagonist, Compound concentration 10.0 uM
[3] = molecular target: Histamine H2 receptor (Homo sapiens) (UniProt P25021); test: H2/APT/HS Eurofins SafetyScreen44 (BI); details: filed as antagonist, Compound concentration 10.0 uM
Sequence of Histamine H2 receptor (Homo sapiens) (P25021 whole entry): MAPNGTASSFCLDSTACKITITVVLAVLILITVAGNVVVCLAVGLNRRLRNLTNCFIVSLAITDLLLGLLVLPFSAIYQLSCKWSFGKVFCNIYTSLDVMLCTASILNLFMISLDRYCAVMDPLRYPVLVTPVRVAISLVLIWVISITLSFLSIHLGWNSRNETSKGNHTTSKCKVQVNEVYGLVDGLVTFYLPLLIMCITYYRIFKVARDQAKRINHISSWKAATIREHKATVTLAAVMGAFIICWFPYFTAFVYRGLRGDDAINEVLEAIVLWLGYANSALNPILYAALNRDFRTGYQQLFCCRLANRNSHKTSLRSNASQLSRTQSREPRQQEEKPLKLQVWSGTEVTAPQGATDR

[4] = molecular target: Kappa-type opioid receptor (Homo sapiens, UniProt P41145); test: KAPPA(KOP)_HU Eurofins SafetyScreen44 (BI); details: Compound concentration 10.0 uM
[5] = molecular target: 5-hydroxytryptamine receptor 1B (Homo sapiens) (UniProt P28222); test: 5HT1B(H) Eurofins SafetyScreen44 (BI); details: filed as antagonist, Compound concentration 10.0 uM
[6] = molecular target: Alpha-2A adrenergic receptor (Homo sapiens) (UniProt P08913); details: Compound concentration 10.0 uM
[7] = molecular target: Sodium-dependent dopamine transporter (Homo sapiens) (UniProt Q01959); test: DATRANS/HUM Eurofins SafetyScreen44 (BI); details: Compound concentration 10.0 uM
[8] = molecular target: Glutamate NMDA receptor (Rattus norvegicus) (UniProt P35439+Q00959+Q00960+Q00961+Q62645+Q8VHN2+Q9R1M7); test: NMDA/R Eurofins SafetyScreen44 (BI); assay type: protein-complex assay; details: Compound concentration 10.0 uM
[9] = molecular target: D(2) dopamine receptor (Homo sapiens) (UniProt P14416); details: Compound concentration 10.0 uM
[10] = molecular target: Histamine H2 receptor (Homo sapiens) (UniProt P25021); details: Compound concentration 10.0 uM
[11] = molecular target: Prothrombin (Homo sapiens) (UniProt P00734); test: THROMBIN Eurofins SafetyScreen44 (BI); details: Compound concentration 10.0 uM
[12] = molecular target: Cathepsin D (Homo sapiens) (UniProt P07339); test: CATHEPSIND Eurofins SafetyScreen44 (BI); details: Compound concentration 10.0 uM
[13] = molecular target: cGMP-inhibited 3',5'-cyclic phosphodiesterase 3A (Homo sapiens) (UniProt Q14432); test: PDE3A Eurofins SafetyScreen44 (BI); details: Compound concentration 10.0 uM
[14] = molecular target: Histamine H3 receptor (Homo sapiens) (UniProt Q9Y5N1); details: Compound concentration 10.0 uM
[15] = molecular target: Muscarinic acetylcholine receptor M1 (Homo sapiens) (UniProt P11229); test: M1/H Eurofins SafetyScreen44 (BI); details: Compound concentration 10.0 uM
Caspase-7 (Homo sapiens) = Caspase-7 (Homo sapiens) (UniProt P55210); test: CASPASE-7(H) Eurofins SafetyScreen44 (BI); details: Compound concentration 10.0 uM
[16] = molecular target: Tyrosine-protein kinase Lck (Homo sapiens) (UniProt P06239); test: LCK_CE Eurofins SafetyScreen44 (BI); details: Compound concentration 10.0 uM
hERG (KCNH2) = hERG (KCNH2) (Homo sapiens, UniProt Q12809); test: HERG_DOFETILIDE Eurofins SafetyScreen44 (BI); set-up: mode of action inhibitor; details: probe [3H] Dofetilide, compound concentration 10 uM, read-out: % Ctrl
[17] = molecular target: Collagenase 3 (Homo sapiens) (UniProt P45452); test: MMP-13 (H) Eurofins SafetyScreen44 (BI); details: Compound concentration 10.0 uM
[18] = molecular target: Matrix metalloproteinase-9 (Homo sapiens) (UniProt P14780); test: MMP-9 (H) Eurofins SafetyScreen44 (BI); details: Compound concentration 10.0 uM
[19] = molecular target: Histamine H1 receptor (Homo sapiens) (UniProt P35367); details: Compound concentration 10.0 uM
[20] = molecular target: Sigma intracellular receptor 2 (Homo sapiens) (UniProt Q5BJF2); details: Compound concentration 10.0 uM
[21] = molecular target: Beta-2 adrenergic receptor (Homo sapiens) (UniProt P07550); test: BETA2/HUM Eurofins SafetyScreen44 (BI); details: filed as antagonist, Compound concentration 10.0 uM
[22] = molecular target: 5-hydroxytryptamine receptor 5A (Homo sapiens) (UniProt P47898); details: Compound concentration 10.0 uM
[23] = molecular target: L-type calcium channel (dihydropyridine site), Cav1.2 alpha-1C (Rattus norvegicus, UniProt P22002); test: CA+/DHPSI/R Eurofins SafetyScreen44 (BI); set-up: mode of action inhibitor; details: rat brain, probe [3H](+)PN200-110, compound concentration 10 uM, read-out: % Ctrl
[24] = molecular target: D(1A) dopamine receptor (Homo sapiens) (UniProt P21728); test: D1/H Eurofins SafetyScreen44 (BI); details: filed as antagonist, Compound concentration 10.0 uM
[25] = molecular target: 5-hydroxytryptamine receptor 2B (Homo sapiens) (UniProt P41595); test: 5HT2B/H AG Eurofins SafetyScreen44 (BI); details: filed as agonist, Compound concentration 10.0 uM
Sequence of 5-hydroxytryptamine receptor 2B (Homo sapiens) (P41595 whole entry): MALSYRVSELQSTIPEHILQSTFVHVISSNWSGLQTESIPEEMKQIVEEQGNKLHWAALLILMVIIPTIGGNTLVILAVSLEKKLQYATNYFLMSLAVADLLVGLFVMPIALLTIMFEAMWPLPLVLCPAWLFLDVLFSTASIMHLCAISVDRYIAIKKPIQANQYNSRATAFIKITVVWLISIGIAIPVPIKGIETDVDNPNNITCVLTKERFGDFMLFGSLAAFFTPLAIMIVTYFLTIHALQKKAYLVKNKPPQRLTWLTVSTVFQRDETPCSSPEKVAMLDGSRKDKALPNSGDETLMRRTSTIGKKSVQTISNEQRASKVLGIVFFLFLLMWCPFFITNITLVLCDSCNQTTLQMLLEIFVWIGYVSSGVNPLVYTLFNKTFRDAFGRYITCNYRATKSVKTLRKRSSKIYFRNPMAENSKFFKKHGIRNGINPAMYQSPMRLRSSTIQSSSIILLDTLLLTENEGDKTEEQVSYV

Caspase-3 (Homo sapiens) = Caspase-3 (Homo sapiens) (UniProt P42574); test: CASPASE-3 Eurofins SafetyScreen44 (BI); details: Compound concentration 10.0 uM
[26] = molecular target: Muscarinic acetylcholine receptor M2 (Homo sapiens) (UniProt P08172); details: Compound concentration 10.0 uM
Sequence of Muscarinic acetylcholine receptor M2 (Homo sapiens) (P08172 whole entry): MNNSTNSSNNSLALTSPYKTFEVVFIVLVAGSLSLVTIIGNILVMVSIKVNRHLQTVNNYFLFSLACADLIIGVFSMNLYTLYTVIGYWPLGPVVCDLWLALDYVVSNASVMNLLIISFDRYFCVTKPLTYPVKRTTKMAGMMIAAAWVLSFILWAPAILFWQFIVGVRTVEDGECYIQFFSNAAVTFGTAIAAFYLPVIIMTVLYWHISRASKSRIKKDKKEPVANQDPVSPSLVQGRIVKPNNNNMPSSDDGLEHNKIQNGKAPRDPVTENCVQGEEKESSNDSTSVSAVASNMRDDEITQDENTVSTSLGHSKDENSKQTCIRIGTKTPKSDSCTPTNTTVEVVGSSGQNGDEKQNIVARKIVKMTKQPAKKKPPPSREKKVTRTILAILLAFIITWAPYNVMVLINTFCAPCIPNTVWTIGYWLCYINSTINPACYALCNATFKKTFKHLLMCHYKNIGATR

Caspase-6 (Homo sapiens) = Caspase-6 (Homo sapiens) (UniProt P55212); test: CASPASE-6_CE Eurofins SafetyScreen44 (BI); details: Compound concentration 10.0 uM
Sequence of Caspase-6 (Homo sapiens) (P55212 24-179 limits assumed): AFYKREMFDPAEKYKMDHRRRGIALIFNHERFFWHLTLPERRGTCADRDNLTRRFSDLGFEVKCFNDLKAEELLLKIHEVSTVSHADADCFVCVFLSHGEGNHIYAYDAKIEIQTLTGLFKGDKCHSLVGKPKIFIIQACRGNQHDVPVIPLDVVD
Sequence of Caspase-6 (Homo sapiens) (P55212 194-293 limits assumed): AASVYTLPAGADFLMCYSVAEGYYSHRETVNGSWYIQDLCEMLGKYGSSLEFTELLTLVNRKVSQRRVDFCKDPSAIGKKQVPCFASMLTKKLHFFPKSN

[27] = molecular target: Dipeptidyl peptidase 4 (Homo sapiens) (UniProt P27487); test: DIPEPTIDYLPEPTIDASE Eurofins SafetyScreen44 (BI); details: Compound concentration 10.0 uM
Sequence of Dipeptidyl peptidase 4 (Homo sapiens) (P27487 whole entry, looked up): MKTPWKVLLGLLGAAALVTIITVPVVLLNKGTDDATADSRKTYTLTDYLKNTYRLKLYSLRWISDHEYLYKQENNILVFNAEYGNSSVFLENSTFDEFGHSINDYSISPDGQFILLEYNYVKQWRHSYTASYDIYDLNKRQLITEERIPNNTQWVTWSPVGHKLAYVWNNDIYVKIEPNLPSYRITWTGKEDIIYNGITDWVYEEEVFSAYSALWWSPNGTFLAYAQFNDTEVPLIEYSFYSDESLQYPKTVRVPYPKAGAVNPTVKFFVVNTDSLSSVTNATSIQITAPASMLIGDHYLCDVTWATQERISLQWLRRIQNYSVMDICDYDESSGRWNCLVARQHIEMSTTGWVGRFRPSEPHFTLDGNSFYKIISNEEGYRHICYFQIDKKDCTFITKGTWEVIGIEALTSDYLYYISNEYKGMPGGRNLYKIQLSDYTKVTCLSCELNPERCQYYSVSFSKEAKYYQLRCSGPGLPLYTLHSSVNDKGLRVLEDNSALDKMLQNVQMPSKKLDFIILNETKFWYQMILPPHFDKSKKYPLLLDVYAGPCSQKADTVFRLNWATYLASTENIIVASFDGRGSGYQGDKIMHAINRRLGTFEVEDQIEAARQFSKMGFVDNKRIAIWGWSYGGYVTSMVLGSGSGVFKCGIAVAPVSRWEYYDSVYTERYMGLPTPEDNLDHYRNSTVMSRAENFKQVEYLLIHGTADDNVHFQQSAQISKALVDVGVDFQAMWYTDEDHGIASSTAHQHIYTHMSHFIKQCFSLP

Caspase-2 (Homo sapiens) = Caspase-2 (Homo sapiens) (UniProt P42575); test: CASPASE-2(H) Eurofins SafetyScreen44 (BI); details: Compound concentration 10.0 uM
[28] = molecular target: Angiotensin-converting enzyme (Homo sapiens) (UniProt P12821); test: ACE(HU_AMTCH400) Eurofins SafetyScreen44 (BI); details: Compound concentration 10.0 uM
[29] = molecular target: Endothelin-1 receptor (Homo sapiens) (UniProt P25101); test: ETA/H Eurofins SafetyScreen44 (BI); details: Compound concentration 10.0 uM
[30] = molecular target: 5-hydroxytryptamine receptor 2A (Homo sapiens) (UniProt P28223); test: 5HT2AH_AGON Eurofins SafetyScreen44 (BI); details: filed as agonist, Compound concentration 10.0 uM
Sequence of 5-hydroxytryptamine receptor 2A (Homo sapiens) (P28223 whole entry): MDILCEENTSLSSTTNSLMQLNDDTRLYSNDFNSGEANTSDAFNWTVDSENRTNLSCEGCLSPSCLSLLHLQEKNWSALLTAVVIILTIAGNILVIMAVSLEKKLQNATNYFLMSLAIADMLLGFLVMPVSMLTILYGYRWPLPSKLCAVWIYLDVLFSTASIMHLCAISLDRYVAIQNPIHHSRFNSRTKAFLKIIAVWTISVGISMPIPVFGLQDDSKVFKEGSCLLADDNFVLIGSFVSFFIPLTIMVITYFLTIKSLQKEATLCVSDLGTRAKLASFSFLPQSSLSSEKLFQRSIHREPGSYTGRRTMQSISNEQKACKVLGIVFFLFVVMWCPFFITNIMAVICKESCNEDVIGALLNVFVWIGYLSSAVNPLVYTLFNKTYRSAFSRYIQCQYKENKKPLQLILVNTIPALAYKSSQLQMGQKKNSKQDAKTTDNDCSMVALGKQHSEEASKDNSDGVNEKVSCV

[31] = molecular target: Cathepsin E (Homo sapiens) (UniProt P14091); test: CATHEPSINE Eurofins SafetyScreen44 (BI); details: Mus musculus; Compound concentration 10.0 uM
[32] = molecular target: Androgen receptor (Homo sapiens) (UniProt P10275); test: ANDROGEN/H Eurofins SafetyScreen44 (BI); details: Compound concentration 10.0 uM
[33] = molecular target: Adenosine receptor A2a (Homo sapiens) (UniProt P29274); test: A2A/H Eurofins SafetyScreen44 (BI); details: filed as antagonist, Compound concentration 10.0 uM
[34] = molecular target: Delta-type opioid receptor (Homo sapiens) (UniProt P41143); details: Compound concentration 10.0 uM
Sequence of Delta-type opioid receptor (Homo sapiens) (P41143 whole entry): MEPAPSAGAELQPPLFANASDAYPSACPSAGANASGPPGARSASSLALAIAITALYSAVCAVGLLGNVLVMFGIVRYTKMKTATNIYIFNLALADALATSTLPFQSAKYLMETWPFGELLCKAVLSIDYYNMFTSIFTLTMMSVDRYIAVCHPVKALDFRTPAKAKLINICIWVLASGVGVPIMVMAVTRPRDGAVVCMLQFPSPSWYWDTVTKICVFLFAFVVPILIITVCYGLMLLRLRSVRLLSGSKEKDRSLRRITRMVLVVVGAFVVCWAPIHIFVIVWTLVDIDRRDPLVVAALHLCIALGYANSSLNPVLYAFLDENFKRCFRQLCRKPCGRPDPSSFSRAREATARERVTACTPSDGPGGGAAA

[35] = molecular target: 5-hydroxytryptamine receptor 2B (Homo sapiens) (UniProt P41595); details: Compound concentration 10.0 uM
[36] = molecular target: 3',5'-cyclic-AMP phosphodiesterase 4D (Homo sapiens) (UniProt Q08499); test: PDE4D2 Eurofins SafetyScreen44 (BI); details: Compound concentration 10.0 uM
Sequence of 3',5'-cyclic-AMP phosphodiesterase 4D (Homo sapiens) (Q08499 whole entry): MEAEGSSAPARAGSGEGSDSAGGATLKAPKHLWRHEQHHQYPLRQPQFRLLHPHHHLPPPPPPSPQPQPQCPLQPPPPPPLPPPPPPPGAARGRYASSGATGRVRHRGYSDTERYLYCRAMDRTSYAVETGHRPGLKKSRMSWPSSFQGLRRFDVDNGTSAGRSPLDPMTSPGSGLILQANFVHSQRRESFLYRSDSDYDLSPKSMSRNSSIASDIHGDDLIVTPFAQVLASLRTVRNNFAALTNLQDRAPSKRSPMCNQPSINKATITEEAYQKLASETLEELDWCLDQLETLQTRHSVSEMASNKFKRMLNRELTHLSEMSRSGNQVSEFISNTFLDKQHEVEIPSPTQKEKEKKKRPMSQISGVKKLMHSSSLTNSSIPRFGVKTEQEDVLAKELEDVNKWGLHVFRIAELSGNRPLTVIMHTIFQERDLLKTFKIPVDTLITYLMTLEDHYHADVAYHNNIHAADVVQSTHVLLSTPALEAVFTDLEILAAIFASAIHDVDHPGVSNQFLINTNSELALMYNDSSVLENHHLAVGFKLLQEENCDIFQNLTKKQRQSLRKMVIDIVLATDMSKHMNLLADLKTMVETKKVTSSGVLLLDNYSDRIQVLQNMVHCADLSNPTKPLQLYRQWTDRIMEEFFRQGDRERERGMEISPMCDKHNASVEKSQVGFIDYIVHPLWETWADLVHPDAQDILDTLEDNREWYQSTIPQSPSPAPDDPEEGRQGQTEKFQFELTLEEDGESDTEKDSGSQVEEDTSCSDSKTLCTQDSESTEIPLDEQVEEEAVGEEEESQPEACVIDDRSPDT

[37] = molecular target: 72 kDa type IV collagenase (Homo sapiens) (UniProt P08253); test: MMP-2 (H) Eurofins SafetyScreen44 (BI); details: Compound concentration 10.0 uM
Sequence of 72 kDa type IV collagenase (Homo sapiens) (P08253 110-660 limits assumed): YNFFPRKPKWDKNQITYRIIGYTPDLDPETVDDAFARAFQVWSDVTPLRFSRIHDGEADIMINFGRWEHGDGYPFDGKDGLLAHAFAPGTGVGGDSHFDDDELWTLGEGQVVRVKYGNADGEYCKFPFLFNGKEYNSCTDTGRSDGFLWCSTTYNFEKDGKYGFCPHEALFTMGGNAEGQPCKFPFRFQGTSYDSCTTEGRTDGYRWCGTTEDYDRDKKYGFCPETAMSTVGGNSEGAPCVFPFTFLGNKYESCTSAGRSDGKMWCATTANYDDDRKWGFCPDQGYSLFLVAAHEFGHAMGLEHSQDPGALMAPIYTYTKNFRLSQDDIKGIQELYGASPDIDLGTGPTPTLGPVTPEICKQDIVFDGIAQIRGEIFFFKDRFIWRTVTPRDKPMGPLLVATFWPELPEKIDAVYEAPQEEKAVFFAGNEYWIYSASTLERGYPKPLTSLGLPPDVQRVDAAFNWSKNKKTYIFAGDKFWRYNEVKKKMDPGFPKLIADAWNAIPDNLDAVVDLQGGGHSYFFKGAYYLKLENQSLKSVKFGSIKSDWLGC

[38] = molecular target: Delta-type opioid receptor (Homo sapiens) (UniProt P41143); test: DELTA2/H Eurofins SafetyScreen44 (BI); details: Compound concentration 10.0 uM
[39] = molecular target: Alpha-1B adrenergic receptor (Homo sapiens) (UniProt P35368); details: Compound concentration 10.0 uM

Sequence of Beta-3 adrenergic receptor (Homo sapiens) (P13945 whole entry, looked up): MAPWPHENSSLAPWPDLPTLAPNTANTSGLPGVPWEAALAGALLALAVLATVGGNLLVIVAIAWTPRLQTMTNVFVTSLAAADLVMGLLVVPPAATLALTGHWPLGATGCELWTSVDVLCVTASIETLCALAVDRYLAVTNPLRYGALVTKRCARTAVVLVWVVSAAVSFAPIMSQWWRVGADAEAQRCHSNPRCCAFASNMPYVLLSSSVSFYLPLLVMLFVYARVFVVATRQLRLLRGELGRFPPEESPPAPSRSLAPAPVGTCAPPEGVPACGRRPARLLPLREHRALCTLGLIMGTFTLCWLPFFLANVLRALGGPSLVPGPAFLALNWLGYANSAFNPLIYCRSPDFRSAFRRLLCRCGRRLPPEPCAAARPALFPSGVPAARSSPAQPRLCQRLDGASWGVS

inhibition [1]: -6.54%
inhibition [6]: 19.6%
inhibition [9]: 0.91%
inhibition [10]: -4.71%
inhibition [14]: 3.32%
inhibition [19]: 14.1%
inhibition [20]: -9.5%
inhibition [22]: 5.71%
inhibition [26]: 12%
inhibition [34]: 9.83%
inhibition [35]: 5.53%
inhibition [39]: -5.58%
SMILES: CC[C@H](CC(=O)O)n1c(=O)c2ncccc2n(Cc2cn(C)c3cc(C)cc(C)c23)c1=O [BI-1942]
residual activity [2]: 103%
residual activity [3]: 114%
residual activity [4]: 89%
residual activity [5]: 86%
residual activity [7]: 101%
residual activity [8]: 113%
residual activity [11]: 102%
residual activity [12]: 118%
residual activity [13]: 94%
residual activity [15]: 112%
residual activity (Caspase-7 (Homo sapiens)): 101%
residual activity [16]: 103%
activity at 10 µM (hERG (KCNH2)): 105% (not active)
residual activity [17]: 109%
residual activity [18]: 124%
residual activity [21]: 93%
activity at 10 µM [23]: 108% (not active)
residual activity [24]: 96%
residual activity [25]: 100%
residual activity (Caspase-3 (Homo sapiens)): 97%
residual activity (Caspase-6 (Homo sapiens)): 99%
residual activity [27]: 107%
residual activity (Caspase-2 (Homo sapiens)): 156%
residual activity [28]: 99%
residual activity [29]: 106%
residual activity [30]: 87%
residual activity [31]: 106%
residual activity [32]: 115%
residual activity [33]: 98%
residual activity [36]: 106%
residual activity [37]: 103%
residual activity [38]: 95%
